Experimental data reported in EP0920487B1, “COMPOSITION AND METHOD FOR INHIBITING THE DEPOSITION OF PROTEIN ON CONTACT LENS” (BAUSCH & LOMB INCORPORATED, priority 1996, dated 1997).

Tested on: lysozyme
Experiment: SPE protein-binding inhibition screening (Sep-Pak Accell Plus CM solid-phase extraction cartridge, absorbance of eluent at 280 nm)
Design: species or system hen
Settings: test compound 1% in BBS; then 0.05% lysozyme; corrected for BBS control
Excerpt: In another aspect of the present invention, selected polyquaternium polymers simultaneously satisfy the dual requirements of both (i) meeting ophthalmological safety standards for an in-the-eye contact-lens solution at concentrations of 1000 ppm and (ii) inhibiting protein binding to a contact lens. The safety requirements can be determined according to the so-called NRDR (neutral red dye release) assay for cytotoxicity described in the Examples. In particular, the polyquaternium polymer should have an NRDR assay rating of L or less at a level of 1000 ppm., preferably L or less at a level of 500 ppm (dry weight of polymer, correcting for water content of the available polymer material). […] The material in this extraction cartridge is a weak cation exchanger that contains a silica support coated with a polymer having carboxymethyl groups. This extraction cartridge is first treated with a 1.0% solution of the polyquaternium polymer in borate-buffered saline followed by exposing the solid phase extraction cartridge to 0.05% lysozyme. The amount of protein-binding inhibition is determined compared to a control solution. […] Preferably, the SPE protein-binding inhibition is at least 20%, more preferably at least 30%, most preferably at least 35%.
This Experiment illustrates the measurement of the protein-displacing effects of various polyquaternium polymers. Among the polyquaternium polymers tested, the polymers varied with respect to the comonomers making up the polymer, the respective proportion of comonomers, and/or the molecular weight of the polymer. The following screening procedure was used. […] The absorbance measurements were conducted by (1) taking an initial absorbance with BBS in a 1 cm cuvette, which reading should be 0.000, re-autozeroing if necessary with BBS, (2) rinsing and filling the cuvette with 0.05% lysozyme solution and reading the absorbance to obtain the "maximum inhibition value', and (3) reading the absorbances for the solutions in the test tubes used to collect the eluents from the test cartridges. […]

With benzalkonium bromide [BAB] the “Average % SPE Binding Inhibition” value was 8%.

With benzalkonium chloride [BAK] the “Average % SPE Binding Inhibition” value was 3%.

In the case of “lauryl methyl gluceth-10 hydroxy-propyl dimonium chloride [Gluquat® 125]”, the “Average % SPE Binding Inhibition” value is reported as 2%.
